pKi: −log10 of the molar value. Where two headings read alike, the source gives them in different places.

The assay deals with T1, human α-thrombin (Homo sapiens, UniProt P00734).
T1 construct: 50 μl human α-thrombin (Kordia); purchased Kordia
The assay can be described thus: Determination of Ki for thrombin inhibition (chromogenic or fluorogenic substrate, Dixon). The format is biochemical. To be noted: for KiTrypsin/KiThrombin: Example 8, selectivity quotient. The protocol: The Ki values are the average values of at least three calculations.
For determining the thrombin inhibiting effect of all reversibly binding inhibitors and inhibitor conjugates with inhibiting constants smaller than 1 nM, a fluorescence spectrometer (LS50B from the company Perkin Elmer) was used. […] The Ki values are the average values of at least three calculations.

Setting [1] is: Example 8, read-out: KiThrombin.
Where [2] appears, read: Table I, formula (II) compounds.

Take “4-Methoxy-benezenesulfonyl-Asn(4-[MeO-PEG5000-CH2CH2CO—NHCH2]-benzyl-Pro-4-amidinobenzylamide”: the pKi under setting [1] was 9.72.
As for `COc1ccc(S(=O)(=O)NCC(=O)N2CCC[C@H]2C(=O)NCc2ccc(C(=N)N)cc2)cc1Cl` [1a], the pKi under setting [2] was 9.36. Moreover, the “Ki Trypsin/Ki Thrombin” value (Table I, selectivity quotient) worked out at 45.
The matching figures for `COc1ccc(S(=O)(=O)NCC(=O)N2CCC[C@H]2C(=O)NCc2ccc(C(=N)N)cc2)cc1C` [1b]: 9.19 and 20.
On the same counts, the results for `N=C(N)c1ccc(CNC(=O)[C@@H]2CCCN2C(=O)CNS(=O)(=O)c2ccc(Cl)c(Cl)c2)cc1` [4a] are 8.60 and 2.3.
The matching figures for `Cc1cccc(S(=O)(=O)NCC(=O)N2CCC[C@H]2C(=O)NCc2ccc(C(=N)N)cc2)c1` [4b]: 8.55 and 2.9.
Consider `N#Cc1cccc(S(=O)(=O)NCC(=O)N2CCC[C@H]2C(=O)NCc2ccc(C(=N)N)cc2)c1` [33a], for which the pKi under setting [2] was 7.32. Moreover, the “Ki Trypsin/Ki Thrombin” value (Table I, selectivity quotient) was 0.47.
The matching figures for `CCOc1ccc(S(=O)(=O)NCC(=O)N2CCC[C@H]2C(=O)NCc2ccc(C(=N)N)cc2)cc1` [33b]: 7.18 and 0.42.
Consider `N=C(N)c1ccc(CNC(=O)C2CCCN2C(=O)C(CC2CCCCC2)NCC(=O)O)cc1` [H-D-N(CH2—COOH)Cha-Pro-4-(amidino)benzylamide, reference compound], for which the KiTrypsin/KiThrombin was determined as 12. The pKi under setting [1] is 9.52.
On the same counts, the results for `N=C(N)N1CCC(CNC(=O)C2CCCN2C(=O)C(CC2CCCCC2)NCC(=O)O)CC1` [H-D-N(CH2—COOH)Cha-Pro-4-(amidomethyl)-N(amidino)piperidine, reference compound] are 173 and 8.89.
On the same counts, the results for `COc1ccc(S(=O)(=O)NC(CCCCN)C(=O)N2CCCC2C(=O)NCc2ccc(C(=N)N)cc2)cc1` (stereo not drawn) [No. 53, 4-Methoxy-benezenesulfonyl-Lys-Pro-4-amidinobenzylamide] are 112 and 9.14.
The matching figures for `COc1ccc(S(=O)(=O)NC(CC(=O)O)C(=O)N2CCCC2C(=O)NCc2ccc(C(=N)N)cc2)cc1` (stereo not drawn) [No. 55, 4-Methoxy-benezenesulfonyl-Asp-Pro-4-amidinobenzylamide]: 48 and 8.80.
The compound `N=C(N)c1ccc(CNC(=O)[C@@H]2CCCN2C(=O)CNS(=O)(=O)Cc2ccccc2)cc1` [compound 6] had a pKi under setting [2] of 8.44. Besides, the “Ki Trypsin/Ki Thrombin” value (Table I, selectivity quotient) is recorded as 2.1.
The matching figures for `COc1ccc(S(=O)(=O)NCC(=O)N2CCC[C@H]2C(=O)NCc2ccc(C(=N)N)cc2)cc1OC` [compound 8]: 8.33 and 4.2.
On the same counts, the results for `N=C(N)c1ccc(CNC(=O)[C@@H]2CCCN2C(=O)CNS(=O)(=O)c2cc(Cl)c(Cl)cc2Cl)cc1` [compound 9] are 8.23 and 3.3.
The matching figures for `N=C(N)c1ccc(CNC(=O)[C@@H]2CCCN2C(=O)CNS(=O)(=O)c2cccc3ccccc23)cc1` [compound 10]: 8.11 and 0.5.
Consider `N=C(N)c1ccc(CNC(=O)[C@@H]2CCCN2C(=O)CNS(=O)(=O)c2cc(Cl)cc(Cl)c2)cc1` [compound 11], for which the pKi under setting [2] was 8.07. In addition, under “Table I, selectivity quotient”, the “Ki Trypsin/Ki Thrombin” value is on record as 0.4.
As to `N=C(N)c1ccc(CNC(=O)[C@@H]2CCCN2C(=O)CNS(=O)(=O)c2ccc3ccccc3c2)cc1` [compound 12], the “Ki Trypsin/Ki Thrombin” value (Table 2, selectivity quotient) was found to be 6.8 and the “Ki Trypsin/Ki Thrombin” value (Table I, selectivity quotient) worked out at 6.8. Also, under setting [2], the pKi is 8.07.
On to `N=C(N)c1ccc(CNC(=O)[C@@H]2CCCN2C(=O)CNS(=O)(=O)c2ccc(Cl)cc2)cc1` [compound 13], for which the pKi under setting [2] is 8.00. Besides, where the note is “Table I, selectivity quotient”, the “Ki Trypsin/Ki Thrombin” value was 2.7.
On the same counts, the results for `Cc1cc(S(=O)(=O)NCC(=O)N2CCC[C@H]2C(=O)NCc2ccc(C(=N)N)cc2)c(Cl)cc1Cl` [compound 14] are 7.98 and 1.1.
